Starred links: 1 amine or outer side, 2 acyl side, 3 side chain; linkers in the order of their positions; H or OH if unused. Positions of bridges follow the written chain, without caps; N, C: chain ends. Non-standard residues stand in square brackets, D forms with d. Residues, ends and D or L forms follow the SMILES beside them. ξ: configuration not given here. *: point of attachment. X25 = CC(NC(=O)[C@@H]1CCC(=O)N1)C(N[*:1])C(=O)[*:2]; X18 = CC(NC(=O)/C=C/c1ccco1)C(N[*:1])C(=O)[*:2]; Propanoyl(3-SO2Ph) = O=C(CCS(=O)(=O)c1ccccc1)*; ξAbu(βξ-NH2) = CC(N[*:3])C(N[*:1])C(=O)[*:2]; Phac(3-amino) = O=C(Cc1cccc(N[*:1])c1)[*:2]; ξAbu(3ξ-NH-βAla) = CC(NC(=O)CCN)C(N)C(=O)O; X4 = CNCC(=O)NC(C)C(N[*:1])C(=O)[*:2]; Pentadecanoyl = CCCCCCCCCCCCCCC(=O)*; ξAsp(βξ-Me) = CC(C(=O)O)C(N)C(=O)O; X13 = O=C(CCCCCCCCCCOc1ccccc1)*; ξAbu(3ξ-NH2) = CC(N)C(N)C(=O)O; X32 = CC(C)CCCCCC/C=C\C(=O)*; 12Ado = NCCCCCCCCCCCC(=O)O; Decanoyl = CCCCCCCCCC(=O)*; Octanoyl = CCCCCCCC(=O)*; Pip = O=C(O)[CH]1CCCCN1; Hexanoyl = CCCCCC(=O)*; ξD = NC(CC(=O)O)C(=O)O; ξPip = O=C(O)C1CCCCN1; ξV = CC(C)C(N)C(=O)O; ξP = O=C(O)C1CCCN1 A value given as a limit tells only on which side of the number the result lay.

The test system of one test is Staphylococcus aureus (MSSA). The conditions noted are these: 24 h. In outline:
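Broth microdilution MIC per NCCLS M7-A6 with doubling serial dilutions, in cation-adjusted Mueller-Hinton broth supplemented with 0.625 mM calcium.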
Broadly, the MIC is the lowest concentration found to suppress growth. As to `CCCCCCCC(=O)N(C)CC(=O)NC(CC(=O)O)C(=O)NC1C(=O)N2CCCCC2C(=O)NC(C(C)C(=O)O)C(=O)NC(CC(=O)O)C(=O)NCC(=O)NC(CC(=O)O)C(=O)NCC(=O)NC(C(C)N)C(=O)NC(C(C)C)C(=O)N2CCCC2C(=O)NC1C` (stereo not shown) [Compound 346, C8-Sar-Amphomycin], the MIC is greater than 64 µg/mL.

For `CCCCCCCCCCCCCCC(=O)NC(CC(=O)O)C(=O)NC1C(=O)N2CCCCC2C(=O)NC(C(C)C(=O)O)C(=O)NC(CC(=O)O)C(=O)NCC(=O)NC(CC(=O)O)C(=O)NCC(=O)NC(C(C)NC(=O)CCCCCCCCCCC)C(=O)NC(C(C)C)C(=O)N2CCCC2C(=O)NC1C` (stereo not shown) [Compound 347, C15-Amphomycin-9-C12], the MIC is greater than 64 µg/mL.

Regarding `CCCCCCCCCCCCCCC(=O)NC(CC(=O)O)C(=O)NC1C(=O)N2CCCCC2C(=O)NC(C(C)C(=O)O)C(=O)NC(CC(=O)O)C(=O)NCC(=O)NC(CC(=O)O)C(=O)NCC(=O)NC(C(C)NC(=O)CCCCCCCCCCOc2ccccc2)C(=O)NC(C(C)C)C(=O)N2CCCC2C(=O)NC1C` (stereo not drawn) [Compound 348, C15-Amphomycin-9-(11-Phenoxyundecanoyl)] (Pentadecanoyl-D[ξAbu(βξ-NH2)][Pip][ξAsp(βξ-Me)]DGDG[ξAbu(βξ-NH2)](X13)VP; lactam 2-C; configuration not given here), the MIC was greater than 64 µg/mL.

Take `CCCCCCCCCCCCCCC(=O)NC(CC(=O)O)C(=O)NC1C(=O)N2CCCCC2C(=O)NC(C(C)C(=O)O)C(=O)NC(CC(=O)O)C(=O)NCC(=O)NC(CC(=O)O)C(=O)NCC(=O)NC(C(C)NC(=O)/C=C/c2ccco2)C(=O)NC(C(C)C)C(=O)N2CCCC2C(=O)NC1C` (stereo not drawn) [Compound 349, C15-Amphomycin-9-(3-Furan-2-yl-Acryloyl)] (Pentadecanoyl-D[ξAbu(βξ-NH2)][Pip][ξAsp(βξ-Me)]DGDG[X18]VP; lactam 2-C; configuration not given here): the MIC was 64 µg/mL.

`CCCCCCCCCCCCCCC(=O)NC(CC(=O)O)C(=O)NC1C(=O)N2CCCCC2C(=O)NC(C(C)C(=O)O)C(=O)NC(CC(=O)O)C(=O)NCC(=O)NC(CC(=O)O)C(=O)NCC(=O)NC(C(C)NC(=O)CCS(=O)(=O)c2ccccc2)C(=O)NC(C(C)C)C(=O)N2CCCC2C(=O)NC1C` (stereo not drawn) [Compound 350, C15-Amphomycin-9-(3-(Benzenesulfonyl)Propionoyl)] (Pentadecanoyl-D[ξAbu(βξ-NH2)][Pip][ξAsp(βξ-Me)]DGDG[ξAbu(βξ-NH2)](Propanoyl(3-SO2Ph))VP; lactam 2-C; configuration not given here): the MIC was found to be 64 µg/mL.

Consider `CCCCCCCCCCCCCCC(=O)NC(CC(=O)O)C(=O)NC1C(=O)N2CCCCC2C(=O)NC(C(C)C(=O)O)C(=O)NC(CC(=O)O)C(=O)NCC(=O)NC(CC(=O)O)C(=O)NCC(=O)NC(C(C)NC(=O)CCC(=O)O)C(=O)NC(C(C)C)C(=O)N2CCCC2C(=O)NC1C` (stereo not shown) [Compound 352, C15-Amphomycin-9-Suc], for which the MIC was greater than 64 µg/mL.

In the case of `CCCCCCCCCCCCCCC(=O)NC(CC(=O)O)C(=O)NC1C(=O)N2CCCCC2C(=O)NC(C(C)C(=O)O)C(=O)NC(CC(=O)O)C(=O)NCC(=O)NC(CC(=O)O)C(=O)NCC(=O)NC(C(C)NC(=O)[C@@H]2CCCN2C(=O)[C@@H](N)CCCCN)C(=O)NC(C(C)C)C(=O)N2CCCC2C(=O)NC1C` (stereo partly shown) [Compound 353, C15-Amphomycin-9-Pro-Lys], the MIC is greater than 64 µg/mL.

As for `CC(C)C1NC(=O)C(C(C)NC(=O)CCN)NC(=O)CNC(=O)C(CC(=O)O)NC(=O)CNC(=O)C(CC(=O)O)NC(=O)C(C(C)C(=O)O)NC(=O)C2CCCCN2C(=O)C(NC(=O)C(N)CC(=O)O)C(C)NC(=O)C2CCCN2C1=O` (stereo not drawn) [Compound 355, Amphomycin-9-(β-Ala)] (H-D[ξAbu(βξ-NH2)][Pip][ξAsp(βξ-Me)]DGDG[ξAbu(3ξ-NH-βAla)]VP; lactam 2-C; configuration not given here), the MIC was greater than 64 µg/mL.

As for `CNCC(=O)NC(C)C1NC(=O)CNC(=O)C(CC(=O)O)NC(=O)CNC(=O)C(CC(=O)O)NC(=O)C(C(C)C(=O)O)NC(=O)C2CCCCN2C(=O)C(NC(=O)C(N)CC(=O)O)C(C)NC(=O)C2CCCN2C(=O)C(C(C)C)NC1=O` (stereo not drawn) [Compound 356, Amphomycin-9-Sar] (H-D[ξAbu(βξ-NH2)][Pip][ξAsp(βξ-Me)]DGDG[X4]VP; lactam 2-C; configuration not given here), the minimum inhibitory concentration (MIC) was greater than 64 µg/mL.

As for `CCCCCC(=O)NCC(=O)NC(CC(=O)O)C(=O)NC1C(=O)N2CCCCC2C(=O)NC(C(C)C(=O)O)C(=O)NC(CC(=O)O)C(=O)NCC(=O)NC(CC(=O)O)C(=O)NCC(=O)NC(C(C)N)C(=O)NC(C(C)C)C(=O)N2CCCC2C(=O)NC1C` (stereo not drawn) [Compound 358, C6-Gly-Amphomycin] (Hexanoyl-GD[ξAbu(βξ-NH2)][Pip][ξAsp(βξ-Me)]DGDG[ξAbu(3ξ-NH2)]VP; lactam 3-C; configuration not given here), the MIC is greater than 64 µg/mL.

Turning to `CCCCCCCC(=O)NCC(=O)NC(CC(=O)O)C(=O)NC1C(=O)N2CCCCC2C(=O)NC(C(C)C(=O)O)C(=O)NC(CC(=O)O)C(=O)NCC(=O)NC(CC(=O)O)C(=O)NCC(=O)NC(C(C)N)C(=O)NC(C(C)C)C(=O)N2CCCC2C(=O)NC1C` (stereo not drawn) [Compound 359, C8-Gly-Amphomycin] (Octanoyl-GD[ξAbu(βξ-NH2)][Pip][ξAsp(βξ-Me)]DGDG[ξAbu(3ξ-NH2)]VP; lactam 3-C; configuration not given here), the MIC was greater than 64 µg/mL.

Regarding `CCCCCCCCCC(=O)NCC(=O)NC(CC(=O)O)C(=O)NC1C(=O)N2CCCCC2C(=O)NC(C(C)C(=O)O)C(=O)NC(CC(=O)O)C(=O)NCC(=O)NC(CC(=O)O)C(=O)NCC(=O)NC(C(C)N)C(=O)NC(C(C)C)C(=O)N2CCCC2C(=O)NC1C` (stereo not drawn) [Compound 360, C10-Gly-Amphomycin] (Decanoyl-GD[ξAbu(βξ-NH2)][Pip][ξAsp(βξ-Me)]DGDG[ξAbu(3ξ-NH2)]VP; lactam 3-C; configuration not given here), the MIC was greater than 64 µg/mL.

`CCCCCCCC(=O)Nc1cccc(CC(=O)NC(CC(=O)O)C(=O)NC2C(=O)N3CCCCC3C(=O)NC(C(C)C(=O)O)C(=O)NC(CC(=O)O)C(=O)NCC(=O)NC(CC(=O)O)C(=O)NCC(=O)NC(C(C)N)C(=O)NC(C(C)C)C(=O)N3CCCC3C(=O)NC2C)c1` (stereo not drawn) [Compound 361, C8-(M-Apa)-Amphomycin] (Octanoyl-[Phac(3-amino)]D[ξAbu(βξ-NH2)][Pip][ξAsp(βξ-Me)]DGDG[ξAbu(3ξ-NH2)]VP; lactam 3-C; configuration not given here): the MIC is greater than 64 µg/mL.

`CC(C)CCCCCC/C=C\C(=O)NC(CC(=O)O)C(=O)NC1C(=O)N2CCCCC2C(=O)NC(C(C)C(=O)O)C(=O)NC(CC(=O)O)C(=O)NCC(=O)NC(CC(=O)O)C(=O)NCC(=O)NC(C(C)N)C(=O)NC(C(C)C)C(=O)N2CCCC2C(=O)NC1C` (stereo not drawn) [Compound 364, (10-Methyl-Undec-2-Enoyl)-Amphomycin] (X32-D[ξAbu(βξ-NH2)][Pip][ξAsp(βξ-Me)]DGDG[ξAbu(3ξ-NH2)]VP; lactam 2-C; configuration not given here): the MIC lay within 4 to 8 µg/mL.

Consider `CCCCCCCCCCCCCCC(=O)NC(CC(=O)O)C(=O)NC1C(=O)N2CCCCC2C(=O)NC(C(C)C(=O)O)C(=O)NC(CC(=O)O)C(=O)NCC(=O)NC(CC(=O)O)C(=O)NCC(=O)NC(C(C)NC(=O)[C@@H]2CCC(=O)N2)C(=O)NC(C(C)C)C(=O)N2CCCC2C(=O)NC1C` (stereo partly drawn) [Compound 373] (Pentadecanoyl-[ξD][ξAbu(βξ-NH2)][ξPip][ξAsp(βξ-Me)][ξD]G[ξD]G[X25][ξV][ξP]; lactam 2-C), for which the MIC is greater than 64 µg/mL.

For the compound `CC(=O)NCCCCCCCCCCCC(=O)NC(CC(=O)O)C(=O)NC1C(=O)N2CCCCC2C(=O)NC(C(C)C(=O)O)C(=O)NC(CC(=O)O)C(=O)NCC(=O)NC(CC(=O)O)C(=O)NCC(=O)NC(C(C)N)C(=O)NC(C(C)C)C(=O)N2CCCC2C(=O)NC1C` (stereo not drawn) [Compound 374, (12-Acetylaminododecanoyl)-Amphomycin] (Ac-[12Ado]D[ξAbu(βξ-NH2)][Pip][ξAsp(βξ-Me)]DGDG[ξAbu(3ξ-NH2)]VP; lactam 3-C; configuration not given here; N-terminus assumed), the MIC was greater than 64 µg/mL.

With `CC(C)C1NC(=O)C(C(C)N)NC(=O)CNC(=O)C(CC(=O)O)NC(=O)CNC(=O)C(CC(=O)O)NC(=O)C(C(C)C(=O)O)NC(=O)C2CCCCN2C(=O)C(NC(=O)C(CC(=O)O)NC(=O)CCCCCCCCCCCN)C(C)NC(=O)C2CCCN2C1=O` (stereo not drawn) [Compound 375, (12-Aminododecoyl)-Amphomycin] (H-[12Ado]D[ξAbu(βξ-NH2)][Pip][ξAsp(βξ-Me)]DGDG[ξAbu(3ξ-NH2)]VP; lactam 3-C; configuration not given here), the MIC was greater than 64 µg/mL.

The test is the same for the next values; noted with them: S. aureus (MSSA), CAMHB supplemented with 0.625 mM calcium, 24 hours at about 37° C.; a range = compound tested multiple times.
`CCCCCCCCCCCCCCC(=O)NC(CC(=O)O)C(=O)NC1C(=O)N2CCCCC2C(=O)NC(C(C)C(=O)O)C(=O)NC(CC(=O)O)C(=O)NCC(=O)NC(CC(=O)O)C(=O)NCC(=O)NC(C(C)NC(=O)CCCc2cc3ccc4cccc5ccc(c2)c3c45)C(=O)NC(C(C)C)C(=O)N2CCCC2C(=O)NC1C` (stereo not shown) [Compound 351, C15-Amphomycin-9-(4-(Pyren-2-yl)Butyroyl)]: the MIC is greater than 64 µg/mL.

Turning to “(2-Dodecanoylamino-Thiazol-4-yl)Acetyl-Amphomycin [Compound 337]”, the MIC is 0.25 to 1 µg/mL.

In the case of “(12-Methyl-Tetradec-2-Enoyl)-Aspartocin-9-Sar [Compound 371]”, the MIC worked out at 0.5 µg/mL.

For the compound C12-Amphomycin-9-gDab [Compound 138], the MIC was 138/32 μg/mL.

With C13-Amphomycin-9-gDab [Compound 135], the MIC is recorded as 135/8 μg/mL.

Consider C14-Amphomycin-9-gDab [Compound 139], for which the MIC is 139/4 μg/mL.

Turning to “C15-Amphomycin-9-(Carbamoyl-Leu) [Compound 204]”, the MIC was 16 µg/mL.

As to C17-Amphomycin-Gly-Lys [Compound 142], the MIC is 142/32 μg/mL.

For “CH3—(CH2)7—NH—C(═O)-(M-Phenylacetyl)-Amphomycin [Compound 306]”, the MIC turned out to be 16 µg/mL.

As to “CH3—(CH2)7—NH—C(═O)-(p-Phenylacetyl)-Amphomycin [Compound 288]”, the MIC was determined as 16 µg/mL.

For the compound “CH3—(CH2)10—NH—C(═O)-(M-Phenylacetyl)-Amphomycin [Compound 362]”, the MIC was determined as 0.5 µg/mL.

For the origin of these results see patent publication US7868135B2, “Compositions of lipopeptide antibiotic derivatives and methods of use thereof” (priority 2003, dated 2011).
